Measured values from patent publication US20230293629A1, “METHODS FOR ATTENUATING RELEASE OF INFLAMMATORY MEDIATORS AND PEPTIDES USEFUL THEREIN” (BIOMARCK PHARMACEUTICALS LTD., priority 2006, published 2023).
Where a SMILES comes first, the peptide text is derived from it. Where no end group is shown, it is not given here. The star is where a group is joined. Myristoyl = CCCCCCCCCCCCCC(=O)*

How the values were obtained:
[1] = system: U937 cells; assay: PMA-stimulated lysozyme secretion by U937 cells; type: cell-based, human; settings: 50 μM test peptide, two hour incubation with 100 nM PMA; U937 cells
Method: (§1) Three types of human leukocyte cell lines, specifically the promyelocytic cell line HL-60 clone 15, the monocytic cell line U937, and the lymphocyte natural killer cell line NK-92 were purchased from American Type Culture Collection (ATCC; Rockville, MD). HL-60 clone 15 cells (ATCC CRL-1964) were maintained in medium consisting of RPMI 1640 with L-glutamine supplemented with 10% heat-inactivated fetal bovine serum (Gibco; Invitrogen Co., Carlsbad, CA), 50 IU/ml penicillin, 50 μg/mL streptomycin, and 25 mM HEPES buffer, pH 7.8, at 37° C. in an atmosphere containing 5% CO2. Final differentiation to an eosinophil-like phenotype was initiated by culturing cells at 5×10^5 cells/ml in the above medium containing 0.5 mM butyric acid (Sigma-Aldrich Co.) for 5 days as previously described (Tiffany H L, Li F, Rosenberg H F. Hyperglycosylation of eosinophil ribonucleases in a promyelocytic leukemia cell line and in differentiated peripheral blood progenitor cells. J Leukoc Biol 1995; 58:49-54; Tiffany H L, Alkhatib G, Combadiere C, Berger E A, Murphy P M. CC chemokine receptors 1 and 3 are differentially regulated by IL-5 during maturation of eosinophilic HL-60 cells. J Immunol 1998; 160:1385-1392). U937 cells (ATCC CRL-1593.2) were grown at 37° C. in an atmosphere of 5% CO2 in complete medium consisting of RPMI 1640 with L-glutamine supplemented with 10% FBS, 50 IU/ml penicillin, and 50 μg/mL streptomycin. NK-92 cells (ATCC CRL-2407) were maintained in alpha-MEM medium (Sigma-Aldrich Co.) supplemented with 20% FBS, 100 U/ml of interleukin-2 (IL-2) (Chemicon International, Inc., Temecula, CA), 5×10^−5 M of 2-mercaptoethanol, 50 IU/mL penicillin, and 50 μg/ml streptomycin at 37° C. in an atmosphere containing 5% CO2. Cell morphology was judged by assessment of Wright-Giemsa-stained cells. Viability of cells harvested for experiments was assessed by trypan blue exclusion and populations of cells with viability >95% were used.
(§2) HL-60 clone 15, U937, and NK-92 cells were washed and resuspended at 2.5×10^6 cells/ml in phenol red-free RPMI-1640 (Cellgro; Mediatech, Inc.) for all degranulation assays. Aliquots of cells in 15 ml tubes were preincubated with indicated concentrations of MANS, RNS, or a test peptide for 10 min at 37° C. The cells then were stimulated with PMA for up to 2 hr. A control reference (PMA control reference) was established for each cell type using HL-60 clone 15, U937, and NK-92 cells, respectively, which were washed and resuspended at 2.5×10^6 cells/ml in phenol red-free RPMI-1640 and stimulated with PMA but in the absence of MANS, RNS, or a test peptide for the same time periods. The reaction was terminated by placing tubes on ice and centrifuging cells at 400 g for 5 min at 4° C.
(§3) For measurements of released MPO from neutrophils and released lysozyme from U937 cells, we were able to quantify secretion by using as standards human MPO and egg white […], respectively. For released EPO from HL-60 clone 15 cells and for released granzyme from NK-92 cells, no standards were available to use for quantification. […] To measure intracellular EPO in HL-60 clone 15 cells and intracellular granzyme in NK-92 cells, appropriate aliquots of 0.1% triton X-100-lysed cells were taken for quantification of intracellular granule proteins as described below. All treatments were expressed as percentage of control to minimize variability between cultures.
Lysozyme secreted by U937 cells was measured using a spectrophotometric assay as described previously (Balboa M A, Saez Y, Balsinde J. Calcium-independent phospholipase A2 is required for lysozyme secretion in U937 promonocytes. J Immunol 2003; 170:5276-5280) with slight modification. Thus, 100 μL of sample was mixed with 100 μL of a Micrococcus lysodeikticus (Sigma-Aldrich Co.) suspension (0.3 mg/ml in 0.1 M sodium phosphate buffer, pH 7.0) in a 96-well microplate. The decrease in absorbance at 450 nm was measured at room temperature. […]

[2] = system: HL-60 clone 15 cells; assay: PMA-stimulated EPO release from HL-60 clone 15 cells; type: cell-based, human; settings: 50 μM test peptide, two hour incubation with 100 nM PMA; HL-60 clone 15 cells
Method: as §1, §2, §3
EPO activity released by HL-60 clone 15 cells was assayed using TMB according to a previously established technique (Lacy P, Mahmudi-Azer S, Bablitz B, Hagen S C, Velazquez J R, Man S F, Moqbel R. Rapid mobilization of intracellularly stored RANTES in response to interferon-gamma in human eosinophils. Blood 1999; 94:23-32). Thus, 100 μL of TMB substrate solution was added to 50 μL=microliters) of sample in a 96-well microplate and incubated at room temperature for 15 min (min=minutes). […]

[3] = Qualitative solubility of peptides in 0.5 N saline, pH 6.5

Which “% Inhibition Lysozyme” value [1] does the source give for `CCCCCCCCCCCCCC(=O)NCC(=O)N[C@@H](C)C(=O)N[C@@H](CCC(N)=O)C(=O)N[C@@H](Cc1ccccc1)C(=O)N[C@@H](CO)C(=O)N[C@@H](CCCCN)C(=O)N[C@H](C(=O)N[C@@H](C)C(=O)N[C@@H](C)C(=O)N[C@@H](CCCCN)C(=O)NCC(=O)N[C@@H](CCC(=O)O)C(=O)N[C@@H](C)C(=O)N[C@@H](C)C(=O)N[C@@H](C)C(=O)N[C@@H](CCC(=O)O)C(=O)N[C@@H](CCCNC(=N)N)C(=O)N1CCC[C@H]1C(=O)NCC(=O)N[C@@H](CCC(=O)O)C(=O)O)[C@@H](C)O` (Myristoyl-GAQFSKTAAKGEAAAERPGE-OH; C-terminus assumed) here?
The value was 99%.

What about the “% Inhibition EPO” value [2] of the same compound?
Its value is 33.6%.

Which results are given for `CCCCCCCCCCCCCC(=O)N[C@@H](CO)C(=O)N[C@@H](CCCCN)C(=O)N[C@H](C(=O)N[C@@H](C)C(=O)N[C@@H](C)C(=O)N[C@@H](CCCCN)C(=O)NCC(=O)N[C@@H](CCC(=O)O)C(=O)N[C@@H](C)C(=O)N[C@@H](C)C(=O)N[C@@H](C)C(=O)N[C@@H](CCC(=O)O)C(=O)N[C@@H](CCCNC(=N)N)C(=O)N1CCC[C@H]1C(=O)NCC(=O)N[C@@H](CCC(=O)O)C(=O)N[C@@H](C)C(=O)N[C@@H](C)C(=O)N[C@H](C(=O)N[C@@H](C)C(=O)O)C(C)C)[C@@H](C)O` (Myristoyl-SKTAAKGEAAAERPGEAAVA-OH; C-terminus assumed)?
% Inhibition Lysozyme [1]: 99%; % Inhibition EPO [2]: 0%; solubility [3]: > 80 mg/mL

Which “% Inhibition Lysozyme” value [1] does the source give for `CC(=O)N[C@@H](C)C(=O)N[C@@H](C)C(=O)NCC(=O)N[C@@H](CCC(=O)O)C(=O)O` [Ac-AAGE, AAGE] (Ac-AAGE-OH; C-terminus assumed) here?
Its value is 36.9%.

And the “% Inhibition EPO” value [2]?
The value was 39.1%.

And the solubility [3]?
The solubility was over 200 mg/mL.

Which results are given for `CC(=O)N[C@@H](C)C(=O)N[C@@H](CCCCN)C(=O)NCC(=O)N[C@@H](CCC(=O)O)C(=O)O` [Ac-AKGE, AKGE] (Ac-AKGE-OH; C-terminus assumed)?
% Inhibition Lysozyme [1]: 7.2%; % Inhibition EPO [2]: 87.6%; solubility [3]: > 200 mg/mL

What does the source list for `CC(=O)N[C@@H](C)C(=O)N[C@@H](CCCCN)C(=O)NCC(=O)N[C@@H](CCC(=O)O)C(N)=O` [Ac-AKGE-NH2, AKGE] (Ac-AKGE-NH2)?
% Inhibition Lysozyme [1]: 26.8%; % Inhibition EPO [2]: 45.6%; solubility [3]: > 200 mg/mL

Which “% Inhibition Lysozyme” value [1] does the source give for `CCCCCCCCCCCCCC(=O)N[C@@H](C)C(=O)N[C@@H](C)C(=O)N[C@@H](C)C(=O)N[C@@H](CCC(=O)O)C(=O)N[C@@H](CCCNC(=N)N)C(=O)N1CCC[C@H]1C(=O)NCC(=O)N[C@@H](CCC(=O)O)C(=O)N[C@@H](C)C(=O)N[C@@H](C)C(=O)N[C@H](C(=O)N[C@@H](C)C(=O)O)C(C)C` [MA-AAAERPGEAAVA, AAAERPGEAAVA] (Myristoyl-AAAERPGEAAVA-OH; C-terminus assumed) here?
Its value is 98%.

What about the “% Inhibition EPO” value [2] of the same compound?
The value was 21.6%.

What about the solubility [3] of the same compound?
The solubility was under 20 mg/mL.

With `CCCCCCCCCCCCCC(=O)N[C@@H](C)C(=O)N[C@@H](C)C(=O)N[C@@H](CCCCN)C(=O)NCC(=O)N[C@@H](CCC(=O)O)C(=O)N[C@@H](C)C(=O)O` [MA-AAKGEA, AAKGEA] (Myristoyl-AAKGEA-OH; C-terminus assumed) as the compound, how does the “% Inhibition Lysozyme” value [1] read?
Its value is 28.6%.

What about the “% Inhibition EPO” value [2] of the same compound?
Its value is 31.4%.

What about the solubility [3] of the same compound?
Its solubility is under 1 mg/mL.

For `CCCCCCCCCCCCCC(=O)N[C@@H](C)C(=O)N[C@@H](CCCCN)C(=O)NCC(=O)N[C@@H](CCC(=O)O)C(=O)O` [MA-AKGE, AKGE] (Myristoyl-AKGE-OH; C-terminus assumed), which “% Inhibition Lysozyme” value [1] is on record?
Its value is 28.6%.

What about the “% Inhibition EPO” value [2] of the same compound?
Its value is 0%.

What about the solubility [3] of the same compound?
Its solubility is under 1 mg/mL.

For `CCCCCCCCCCCCCC(=O)N[C@@H](C)C(=O)N[C@@H](CCCCN)C(=O)NCC(=O)N[C@@H](CCC(=O)O)C(=O)N[C@@H](C)C(=O)N[C@@H](C)C(=O)N[C@@H](C)C(=O)N[C@@H](CCC(=O)O)C(=O)N[C@@H](CCCNC(=N)N)C(=O)N1CCC[C@H]1C(=O)NCC(=O)N[C@@H](CCC(=O)O)C(=O)N[C@@H](C)C(=O)N[C@@H](C)C(=O)N[C@H](C(=O)N[C@@H](C)C(=O)O)C(C)C` [MA-AKGEAAAERPGEAAVA, AKGEAAAERPGEAAVA] (Myristoyl-AKGEAAAERPGEAAVA-OH; C-terminus assumed), which “% Inhibition Lysozyme” value [1] is on record?
Its value is 98%.

What about the “% Inhibition EPO” value [2] of the same compound?
The value was 18.1%.

What about the solubility [3] of the same compound?
The solubility was over 80 mg/mL.

What does the source list for `CCCCCCCCCCCCCC(=O)NCC(=O)N[C@@H](C)C(=O)N[C@@H](CCC(N)=O)C(=O)N[C@@H](Cc1ccccc1)C(=O)N[C@@H](CO)C(=O)N[C@@H](CCCCN)C(=O)N[C@H](C(=O)N[C@@H](C)C(=O)N[C@@H](C)C(=O)N[C@@H](CCCCN)C(=O)O)[C@@H](C)O` [MA-GAQFSKTAAK, GAQFSKTAAK] (Myristoyl-GAQFSKTAAK-OH; C-terminus assumed)?
% Inhibition Lysozyme [1]: 56.6%; % Inhibition EPO [2]: 37.4%; solubility [3]: > 10 mg/mL

What does the source list for `CCCCCCCCCCCCCC(=O)NCC(=O)N[C@@H](C)C(=O)N[C@@H](CCC(N)=O)C(=O)N[C@@H](Cc1ccccc1)C(=O)N[C@@H](CO)C(=O)N[C@@H](CCCCN)C(=O)N[C@H](C(=O)N[C@@H](C)C(=O)N[C@@H](C)C(=O)N[C@@H](CCCCN)C(=O)NCC(=O)N[C@@H](CCC(=O)O)C(=O)N[C@@H](C)C(=O)N[C@@H](C)C(=O)N[C@@H](C)C(=O)N[C@@H](CCC(=O)O)C(=O)O)[C@@H](C)O` [MA-GAQFSKTAAKGEAAAE, GAQFSKTAAKGEAAAE] (Myristoyl-GAQFSKTAAKGEAAAE-OH; C-terminus assumed)?
% Inhibition Lysozyme [1]: 99%; % Inhibition EPO [2]: 30.3%; solubility [3]: > 2 mg/mL

Which “% Inhibition Lysozyme” value [1] does the source give for `CCCCCCCCCCCCCC(=O)N[C@@H](CCCNC(=N)N)C(=O)N1CCC[C@H]1C(=O)NCC(=O)N[C@@H](CCC(=O)O)C(=O)N[C@@H](C)C(=O)N[C@@H](C)C(=O)N[C@H](C(=O)N[C@@H](C)C(=O)O)C(C)C` [MA-RPGEAAVA, RPGEAAVA] (Myristoyl-RPGEAAVA-OH; C-terminus assumed) here?
The value was 99%.

What about the “% Inhibition EPO” value [2] of the same compound?
Its value is 0%.

For “Ac-AAAERPGEAAVA [Ac-AAAERPGEAAVA, AAAERPGEAAVA]”, which “% Inhibition Lysozyme” value [1] is on record?
The value was 29.5%.

And the “% Inhibition EPO” value [2]?
The value was 51.2%.

Which results are given for “Ac-AKGEAAAERPGEAAVA [Ac-AKGEAAAERPGEAAVA, AKGEAAAERPGEAAVA]”?
% Inhibition Lysozyme [1]: 34.3%; % Inhibition EPO [2]: 72.3%

For “Ac-GAQFSKTAAKGEAAAE [Ac-GAQFSKTAAKGEAAAE, GAQFSKTAAKGEAAAE]”, which “% Inhibition Lysozyme” value [1] is on record?
Its value is 8.4%.

And the “% Inhibition EPO” value [2]?
The value was 56.6%.

Which “% Inhibition Lysozyme” value [1] does the source give for Ac-GAQFSKTAAKGEAAAERPGE here?
Its value is 0.0%.

What about the “% Inhibition EPO” value [2] of the same compound?
The value was 48.8%.

For Ac-RPGEAAVA [Ac-RPGEAAVA, RPGEAAVA], which “% Inhibition Lysozyme” value [1] is on record?
The value was 0.0%.

And the “% Inhibition EPO” value [2]?
Its value is 45.8%.
